Experimental findings from ChEMBL document CHEMBL1177736, “Isopropylidene substitution increases activity and selectivity of biphenylmethylene 4-pyridine type CYP17 inhibitors” (J Med Chem, 2010) are described below.

Some results are limits rather than exact numbers.

Test [1] deals with T1, Cytochrome P450 11B1, mitochondrial (Homo sapiens, UniProt P15538).
T1 sequence (P15538 whole entry): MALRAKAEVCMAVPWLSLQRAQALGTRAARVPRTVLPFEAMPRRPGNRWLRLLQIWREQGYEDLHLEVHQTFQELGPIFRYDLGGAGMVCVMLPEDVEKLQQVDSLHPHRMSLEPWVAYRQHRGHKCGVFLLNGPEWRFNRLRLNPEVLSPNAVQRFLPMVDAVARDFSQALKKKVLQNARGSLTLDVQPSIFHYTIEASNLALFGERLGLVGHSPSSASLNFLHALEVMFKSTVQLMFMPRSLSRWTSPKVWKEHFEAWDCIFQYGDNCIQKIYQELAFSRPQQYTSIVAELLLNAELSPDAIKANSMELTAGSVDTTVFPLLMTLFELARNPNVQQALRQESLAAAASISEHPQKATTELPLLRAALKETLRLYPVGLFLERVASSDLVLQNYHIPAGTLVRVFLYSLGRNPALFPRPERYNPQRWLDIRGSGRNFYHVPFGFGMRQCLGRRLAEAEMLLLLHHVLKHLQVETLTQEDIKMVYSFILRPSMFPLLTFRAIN
Briefly: Inhibition of human CYP11B1 expressed in hamster V79MZh cells. In kind it is cell-based.

The target in test [2] is T2, Cytochrome P450 11B2, mitochondrial (Homo sapiens, UniProt P19099).
T2 sequence (P19099 whole entry): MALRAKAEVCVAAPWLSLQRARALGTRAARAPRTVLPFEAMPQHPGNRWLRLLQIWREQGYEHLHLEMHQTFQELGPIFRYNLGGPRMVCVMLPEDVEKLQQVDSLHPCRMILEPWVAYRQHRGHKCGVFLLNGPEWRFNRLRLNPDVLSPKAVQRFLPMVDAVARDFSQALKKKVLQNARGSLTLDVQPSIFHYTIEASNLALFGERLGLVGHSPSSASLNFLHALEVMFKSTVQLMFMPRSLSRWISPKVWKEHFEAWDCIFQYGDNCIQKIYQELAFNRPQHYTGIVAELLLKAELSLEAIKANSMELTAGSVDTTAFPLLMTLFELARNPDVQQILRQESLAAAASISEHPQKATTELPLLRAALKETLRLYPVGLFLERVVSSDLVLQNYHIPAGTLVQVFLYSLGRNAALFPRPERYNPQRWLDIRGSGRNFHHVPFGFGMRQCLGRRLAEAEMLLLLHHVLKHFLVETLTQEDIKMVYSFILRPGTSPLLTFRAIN
Briefly: Inhibition of human CYP11B2 expressed in hamster V79MZh cells. It is filed as cell-based.

The target in a further test is T3, Aromatase (Homo sapiens, UniProt P11511).
T3 sequence (P11511 whole entry): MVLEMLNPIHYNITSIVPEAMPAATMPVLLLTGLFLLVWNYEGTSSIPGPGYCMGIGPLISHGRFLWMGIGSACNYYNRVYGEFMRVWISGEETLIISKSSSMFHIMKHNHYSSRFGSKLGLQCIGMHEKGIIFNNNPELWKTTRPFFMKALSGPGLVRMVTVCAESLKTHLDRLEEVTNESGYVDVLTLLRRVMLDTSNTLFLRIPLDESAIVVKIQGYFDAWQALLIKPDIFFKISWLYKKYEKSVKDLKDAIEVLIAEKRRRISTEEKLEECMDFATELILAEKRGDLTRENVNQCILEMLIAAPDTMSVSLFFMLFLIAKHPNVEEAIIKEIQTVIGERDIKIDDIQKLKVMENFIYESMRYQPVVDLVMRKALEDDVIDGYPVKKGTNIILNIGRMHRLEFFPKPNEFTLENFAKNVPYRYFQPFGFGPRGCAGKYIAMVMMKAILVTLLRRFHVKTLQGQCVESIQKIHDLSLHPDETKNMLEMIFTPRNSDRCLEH
Description: Inhibition of CYP19 in human placental microsomes. Set-up: species or system Placenta.

The next test deals with Cytochrome P450 3A4 (Homo sapiens, UniProt P08684). Description: Inhibition of CYP3A4 expressed in baculovirus infected insect microsomes. Further details: species or system Microsome.
Test [3] deals with T4, Steroid 17-alpha-hydroxylase/17,20 lyase (Homo sapiens, UniProt P05093).
T4 sequence (P05093 whole entry): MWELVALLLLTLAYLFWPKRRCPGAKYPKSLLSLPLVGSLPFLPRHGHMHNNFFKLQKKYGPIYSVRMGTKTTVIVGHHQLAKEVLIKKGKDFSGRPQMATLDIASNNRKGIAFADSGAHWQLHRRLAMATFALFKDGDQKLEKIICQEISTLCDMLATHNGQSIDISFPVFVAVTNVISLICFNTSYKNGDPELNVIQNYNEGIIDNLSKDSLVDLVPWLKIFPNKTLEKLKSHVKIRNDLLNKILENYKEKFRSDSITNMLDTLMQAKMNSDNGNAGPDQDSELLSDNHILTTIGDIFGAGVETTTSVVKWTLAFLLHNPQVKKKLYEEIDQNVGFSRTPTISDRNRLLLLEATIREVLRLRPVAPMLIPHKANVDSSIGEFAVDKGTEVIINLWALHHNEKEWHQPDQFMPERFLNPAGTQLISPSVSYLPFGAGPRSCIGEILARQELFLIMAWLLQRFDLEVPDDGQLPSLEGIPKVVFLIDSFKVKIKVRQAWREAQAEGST
Description: Inhibition of human CYP17 expressed in Escherichia coli coexpressing NADPH-P450 reductase.

Cytochrome P450 3A4, sequence (P08684 whole entry): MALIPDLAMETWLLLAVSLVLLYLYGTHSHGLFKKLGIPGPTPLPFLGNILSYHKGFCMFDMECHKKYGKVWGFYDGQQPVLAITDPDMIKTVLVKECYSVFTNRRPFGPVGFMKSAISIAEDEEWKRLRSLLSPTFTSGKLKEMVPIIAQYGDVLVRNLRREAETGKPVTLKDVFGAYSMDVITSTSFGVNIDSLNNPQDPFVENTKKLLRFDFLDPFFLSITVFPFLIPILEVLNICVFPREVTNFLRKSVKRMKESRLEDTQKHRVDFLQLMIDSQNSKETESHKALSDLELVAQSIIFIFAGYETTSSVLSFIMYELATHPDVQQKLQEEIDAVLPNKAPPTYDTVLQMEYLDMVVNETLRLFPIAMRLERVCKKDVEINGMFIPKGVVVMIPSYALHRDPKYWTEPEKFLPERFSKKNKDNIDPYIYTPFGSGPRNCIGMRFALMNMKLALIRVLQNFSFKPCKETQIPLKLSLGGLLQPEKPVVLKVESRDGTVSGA

`Oc1cccc(-c2ccc(Cc3ccncc3)cc2)c1`: the IC50 (in general, the concentration that inhibits the measured activity by half) in test [1] is 0.342 µM; in test [2], 0.261 µM; against Aromatase, 0.663 µM; on Cytochrome P450 3A4, 0.538 µM.
For the compound `CC(C)=C(c1ccncc1)c1ccc(-c2cccc(O)c2)cc1`, the IC50 in test [3] is 0.056 µM; in test [1], 3.1 µM; in test [2], 3.45 µM; at Aromatase it was 12 µM; on Cytochrome P450 3A4, 0.73 µM.
Compound `CC(C)=C(c1ccncc1)c1ccc(-c2ccc(NC(=O)OC(C)(C)C)c(F)c2)cc1` returned an IC50 in test [3] of 0.852 µM.
Take `CC(C)=C(c1ccncc1)c1ccc(-c2ccc(NC(=O)OC(C)(C)C)c(NC(=O)OC(C)(C)C)c2)cc1`: in test [3], the IC50 is > 10 µM.
On to `CCC(c1ccncc1)c1ccc(-c2cccc(O)c2)cc1` (stereo unspecified), for which half-maximal inhibition in test [3] (IC50) required 0.189 µM.
Take `Nc1ccc(-c2ccc(Cc3ccncc3)cc2)cc1N`: the half-maximal inhibitory concentration (IC50) in test [3] came to 0.337 µM; in test [1] it was 0.502 µM; in test [2] it was 0.368 µM; against Aromatase, 24.6 µM.
With `CC(C)=C(c1ccncc1)c1ccc(-c2cccc(NC(=O)OC(C)(C)C)c2)cc1`, in test [3], half-maximal inhibition (IC50) was put at 1.46 µM.
Consider `Nc1cccc(-c2ccc(Cc3ccncc3)cc2)c1`, for which the IC50 in test [3] worked out at 0.226 µM; in test [1], 0.287 µM; in test [2], 0.921 µM; against Aromatase, 2.83 µM.
Take `CC(C)=C(c1ccncc1)c1ccc(-c2cccc(N)c2)cc1`: the IC50 in test [3] came out at 0.038 µM; in test [1], 7.3 µM; in test [2], 3.83 µM; on Aromatase, 5.06 µM; against Cytochrome P450 3A4, 1.33 µM.
The compound `CC(C)C(c1ccncc1)c1ccc(-c2cccc(O)c2)cc1` (stereo unspecified) came in with an IC50 in test [3] of 0.783 µM.
Turning to `C[C@]12CC[C@H](O)CC1=CC[C@@H]1[C@@H]2CC[C@]2(C)C(c3cccnc3)=CC[C@@H]12` [ABIRATERONE], the IC50 in test [1] was 1.61 µM; in test [2], 1.75 µM; at Aromatase it was > 50 µM.
In test [3], `CCC(c1ccncc1)c1ccc(-c2ccc(O)c(F)c2)cc1` (stereo unspecified) displayed a half-maximal inhibitory concentration (IC50) of 0.343 µM.
`CC(C)=C(c1ccncc1)c1ccc(-c2ccc(NC(=O)OC(C)(C)C)cc2)cc1` registered an IC50 in test [3] of 0.493 µM.
`CC(C)=C(c1ccncc1)c1ccc(-c2ccc(O)c(O)c2)cc1`: the concentration for half-maximal inhibition (IC50) in test [3] stood at 0.037 µM; in test [1] it was 37.5 µM; in test [2] it was 0.974 µM; on Aromatase, 9.5 µM; against Cytochrome P450 3A4, 0.464 µM.
Consider `Oc1ccc(-c2ccc(Cc3ccncc3)cc2)cc1F`, for which the IC50 in test [3] was 0.186 µM; in test [1], 0.351 µM; in test [2], 0.11 µM; at Aromatase, 1.67 µM; at Cytochrome P450 3A4, 0.896 µM.
For the compound `Oc1ccc(-c2ccc(Cc3ccncc3)cc2)cc1O`, the IC50 turned out to be 0.052 µM in test [3]; 1.4 µM in test [1]; 0.948 µM in test [2]; 2.44 µM against Aromatase; 7.58 µM at Cytochrome P450 3A4.
In the same order, the values of `CC(C)=C(c1ccncc1)c1ccc(-c2ccc(N)c(N)c2)cc1` are 0.075 µM, 7.18 µM, 1.13 µM, 49.5 µM and 1.77 µM.
For `CC(C)=C(c1ccncc1)c1ccc(-c2ccc3cc(O)ccc3c2)cc1`, the IC50 in test [3] turned out to be 0.062 µM; in test [1], 5.06 µM; in test [2], 49.5 µM; against Aromatase it was 48.7 µM.
As for `CC(C)=C(c1ccncc1)c1ccc(-c2ccc(O)c(F)c2)cc1`, the half-maximal inhibitory concentration (IC50) turned out to be 0.075 µM in test [3]; 2 µM in test [1]; 1.87 µM in test [2]; 5.75 µM on Aromatase; 17.6 µM on Cytochrome P450 3A4.
